US20120328628A1, “ANTIBODIES TO CONFORMATIONALLY TRAPPED PROTEINS” (The Regents of the University of California, priority 2006, published 2012)

Target: T1, wild-type caspase-1 (Homo sapiens, UniProt P29466)
T1 construct: single site alanine mutants for each of these residues in either the p10 or p20 subunit; made in house; E. coli is printed only for caspase-4/-5 made by the caspase-1 procedure
T1 sequence (P29466 120-297 limits assumed): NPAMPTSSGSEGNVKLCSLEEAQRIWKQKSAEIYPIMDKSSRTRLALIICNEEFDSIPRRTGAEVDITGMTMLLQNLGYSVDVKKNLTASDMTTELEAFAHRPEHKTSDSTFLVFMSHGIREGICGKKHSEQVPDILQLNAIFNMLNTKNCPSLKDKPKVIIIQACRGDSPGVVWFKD
T1 sequence (P29466 317-404 limits assumed): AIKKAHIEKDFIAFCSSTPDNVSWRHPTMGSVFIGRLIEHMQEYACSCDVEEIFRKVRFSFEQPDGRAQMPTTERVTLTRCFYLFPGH
Test: Titration of wild-type caspase-1 with z-VAD-FMK
Type: biochemical
Excerpt: To test this, wild-type caspase-1 was titrated with inhibitor and found to produce a 2-fold activation when one reaches 0.2 equivalents of z-VAD-FMK. […] If the inhibitor labeled in a non-cooperative fashion we would expect that it would reach an optimum upon addition of about 0.5 equivalents and would cause a […] activation as half of the sites are inactivated. The fact this maxima is below 0.5 equivalents and is less than […] probably reflects that labeling is cooperative too. […] Thus, we have developed a second assay for evaluating the active site coupling.

For z-VAD-FMK, the “activation of wild-type caspase-1” value (0.2 equivalents of inhibitor) was 2 fold and the “inhibition of wild-type caspase-1” value (approaching one equivalent of inhibitor) was “complete inhibition”.
